Results reported in patent US9051345B2, “Metalloinsertor complexes targeted to DNA mismatches” (CALIFORNIA INSTITUTE OF TECHNOLOGY, priority 2011, dated 2015).

How the values were obtained:
Format in all cases: cell-based, human
[1] = system: HCT116N and HCT116O cells; experiment: ICP-MS assay for cellular rhodium levels, whole cell lysates; details: 10 μM; 48 hours; compared to [Rh(bpy)2chrysi]^3+ or [Rh(NH3)4chrysi]^3+
Procedure: To assay the subcellular localization of the rhodium complexes, an inductively coupled plasma mass spectrometry (ICP-MS) assay was used to quantify the uptake of the complexes in both whole cell extracts and nuclear and mitochondrial fractions.
Each cell line was treated with 10 μM of each rhodium complex as indicated in FIG. 33A (except [Rh(DIP)2(chrysi]^3+ which was administered at 2 μM) for 1, 3, 6, 12, 24, or 48 hours. After rhodium incubation, the cells were harvested from adherent culture by trypsinization, washed with cold PBS, and counted by hemacytometer. The samples were pelleted and resuspended in 1% HNO3 (v/v), homogenized by three freeze/thaw cycles in liquid nitrogen, and analyzed for rhodium content on an HP-4500 ICP-MS unit. Rhodium counts were normalized to the number of cells counted in each sample before lysate preparation. Standard errors for three independent experiments are shown.

HCT116N cells = experiment: MTT cytotoxicity assay; details: 72 hours
Procedure: (§1) Cytotoxicity assays were performed as described in Mosmann, 1983, J. Immunol. Methods, 65, 55-63, the entire contents of which is incorporated herein by reference. HCT116N and HCT116O cells were plated in 96-well plates at 50,000 cells/well and incubated with rhodium for the durations specified. After incubation with the indicated rhodium complexes, cells were labeled with MTT for 4 hours at 37° C. under 5% CO2 and humidified atmosphere. The resulting formazan crystals were dissolved with solubilizing reagent purchased from Roche according to the manufacturer's instructions. The dissolved formazan was quantified as the absorbance at 570 nm minus the background absorbance at 690 nm. Percent viability was determined as the ratio of the amount of formazan in the treated cells to that of the untreated cells.
(§2) In order to elucidate the mechanism of action for the cytotoxicity caused by a metalloinsertor complex of Formula I, the MTT cytotoxicity assay was repeated in the absence and presence of the pan-caspase inhibitor Z-VAD-FMK. This inhibitor works by irreversibly binding to the active site of caspases which participate in the apoptotic pathway. Z-VAD-FMK was added to a final concentration of 20 μM. The HCT116N and HCT116O cell lines were treated with 0-30 μM of the [Rh(HDPA)2chrysi]^3+ complex for 24-72 hours. In addition, each treatment was also combined with the inhibitor at a final concentration of 20 μM.
In order to determine the mechanism of action for cytotoxicity caused by a metalloinsertor complex of Formula I, the MTT cytotoxicity assay was repeated in conjunction with a panel of poly-ADP ribose polymerase (PARP) inhibitors: DPQ, 3-AB, 4-AN, and ABT-888, as described in Costantino et al., 2001, J. Med. Chem., 44, 3786-3794; Purnell et al., 1980, Biochem. J. 185, 775-777; Banasik et al., 1992, J. Biol. Chem. 267, 1569-1575; and Donawho et al., 2007, Clin. Cancer Res., 13, 2728-2737, the entire contents of all of which are incorporated herein by reference. […]

[2] = system: HCT116N and HCT116O cells; experiment: Cell cycle distribution flow cytometry assay (PI); details: 20 μM, 24 and 48 hours
Procedure: Cells were harvested from adherent culture by trypsinization and washed with cold PBS. The resultant pellet was resuspended in PBS (chilled to 4° C.), and ice-cold ethanol was added dropwise to a final concentration of 70% (v/v), with continuous gentle agitation. Cells were fixed at 4° C. for 30 minutes and stored for up to one week. Prior to analysis, the fixed cells in 70% ethanol were diluted 1:3 in cold PBS and centrifuged at 1,400×g for 5 minutes. The resultant pellet was washed twice and resuspended in ice-cold PBS. Ribonuclease was added to a final concentration of 30 μg/mL and the cells were incubated overnight at 4° C. The next day propidium iodide was added to a final concentration of 20 μg/mL and cells were analyzed by flow cytometry. Data analysis was performed using the FloJo software package (v 8.7.1).

HCT116O cells = experiment: MTT cytotoxicity assay
Procedure: as §1
as §2, with “Z-VAD-FMK was added to a final concentration of 20 μM.” left out, “In addition, each treatment was also combined with the inhibitor at a final concentration of 20 μM.” left out
In order to determine the mechanism of action for cytotoxicity caused by a metalloinsertor complex of Formula I, the MTT cytotoxicity assay was repeated in conjunction with a panel of poly-ADP ribose polymerase (PARP) inhibitors: DPQ, 3-AB, 4-AN, and ABT-888, as described in Costantino et al., 2001, J. Med. Chem., 44, 3786-3794; Purnell et al., 1980, Biochem. J. 185, 775-777; Banasik et al., 1992, J. Biol. Chem. 267, 1569-1575; and Donawho et al., 2007, Clin. Cancer Res., 13, 2728-2737, the entire contents of all of which are incorporated herein by reference. The HCT116N and HCT116O cell lines were treated with 0 or 20 μM of the [Rh(HDPA)2chrysi]^3+ complex for 72 hours, with or without one of the four inhibitors. The inhibitor 3,4-Dihydro-5[4-(1-piperindinyl)butoxy]-1(2H)-isoquinoline (DPQ) was added to a final concentration of 0, 25, or 50 μM; the inhibitor 3-aminobenzamide (3-AB) was added to a final concentration of 0, 2, or 3 mM; the inhibitor 4-amino-1,8-napthalimide (4-AN) was added to a final concentration of 0, 10, or 20 μM; and the inhibitor 2-((R)-2-Methylpyrrolidin-2-yl)-1H-benzimidazole-4-carboxamide (ABT-888) was added to a final concentration of 0, 5, or 10 μM. […] For example, in the case of the compound DPQ, this difference was 43±2.7% without inhibitor and 0.6±3.0% with inhibitor.

[Rh(HDPA)2chrysi]^3+
cellular uptake (rhodium accumulation in whole cell lysates) [1]: increase in cellular uptake
number of viable HCT116N cells, % of untreated controls (HCT116N cells; 20 μM): 80±5.2%
cell viability HCT116N with caspase inhibitor (HCT116N cells; 30 μM metal complex, with Z-VAD-FMK at 20 M (so in the source)): 52±9.8%
cell viability HCT116N (HCT116N cells; 30 μM metal complex, without inhibitor): 63±5.7%
effect on the cell cycle [2]: disruption of the cell cycle
caspase dependence of the selective cell death (HCT116O cells; MTT with or without Z-VAD-FMK): caspase-independent
number of viable HCT116O cells, % of untreated controls (HCT116O cells; MTT, 20 μM, 72 hours): 37±4.4%
difference between percentage of viable HCT116N cells and percentage of viable HCT116O cells, with DPQ (HCT116O cells; MTT, 20 μM, 72 hours, with PARP inhibitor DPQ): 0.6±3.0%
difference between percentage of viable HCT116N cells and percentage of viable HCT116O cells (HCT116O cells; MTT, 20 μM, 72 hours, without inhibitor): 43±2.7%
cell viability HCT116O with caspase inhibitor (HCT116O cells; MTT, 30 μM metal complex, 72 hours, with Z-VAD-FMK at 20 M (so in the source)): 9.8±7.8%
cell viability HCT116O (HCT116O cells; MTT, 30 μM metal complex, 72 hours, without inhibitor): 9.7±4.4%
toxicity in MMR-deficient HCT116O versus HCT116N cells at 48 hours (HCT116O cells; MTT, 48 hours): enhance toxicity in the MMR-deficient HCT116O cells
cell viability HCT116O without inhibitor (40 μM caspase inhibitor experiment) (HCT116O cells; MTT, rhodium alone, control arm of the 40 μM Z-VAD-FMK experiment): 16±10%
cell viability HCT116O with caspase inhibitor 40 μM (HCT116O cells; MTT, rhodium plus Z-VAD-FMK 40 μM): 28±3.7%
